Assay results from patent publication US8153784B2, “Imaging of enzyme activity” (The General Hospital Corporation, priority 2004, dated 2012).
Values joined by “and” are separate entries in the source; they are usually repeats but may differ in a detail not shown here. Equal values may be shown once.

What was measured:
endogenous mouse MPO = target: T1, endogenous mouse MPO (Mus musculus, UniProt P11247); assay: LPS induced myositis, MR imaging at 4.7 T; assay type: in vivo; settings: mice with LPS induced myositis
T1 construct: endogenous in cells; host or cells: inflammatory cells recruited by LPS in C57BL6 male mice (Matrigel site in the thigh, or flank muscle myositis)
T1 sequence (P11247 139-718): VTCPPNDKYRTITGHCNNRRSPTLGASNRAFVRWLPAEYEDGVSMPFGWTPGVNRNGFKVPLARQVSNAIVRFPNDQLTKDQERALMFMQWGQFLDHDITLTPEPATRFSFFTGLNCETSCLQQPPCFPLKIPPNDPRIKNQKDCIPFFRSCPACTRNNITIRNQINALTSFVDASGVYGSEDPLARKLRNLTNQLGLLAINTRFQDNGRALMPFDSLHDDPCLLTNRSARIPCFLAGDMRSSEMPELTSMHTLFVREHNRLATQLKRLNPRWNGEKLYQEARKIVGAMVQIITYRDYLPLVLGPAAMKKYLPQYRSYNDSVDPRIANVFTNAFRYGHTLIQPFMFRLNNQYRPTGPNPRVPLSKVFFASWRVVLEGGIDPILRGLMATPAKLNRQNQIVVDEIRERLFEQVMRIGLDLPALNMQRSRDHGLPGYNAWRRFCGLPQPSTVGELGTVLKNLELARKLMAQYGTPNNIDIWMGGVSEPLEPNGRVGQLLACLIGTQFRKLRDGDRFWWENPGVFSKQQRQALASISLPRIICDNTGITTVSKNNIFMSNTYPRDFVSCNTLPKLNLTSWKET
Protocol: The MR imaging experiments were performed on a 1.5 T GE Excite scanner and a 4.7 T Bruker Pharmascan scanner. For all MR imaging experiments, precontrast T2-(TR=2000, TE=100, ETL=8, NEX=4, fast spin echo sequence) and T1-weighted images (TR=500, TE=11, NEX=4, spin echo sequence) with fat saturation were initially performed to locate the gels or area of inflammation. The substrates (0.3 mmol/kg) were subsequently injected via the tail vein of the mouse. The mouse was immediately imaged after the injection of the contrast agent using multiple T1-weighted sequences with fat saturation for at least 3 hours.
Ten-week old C57BL6 male mice were obtained from Jackson Laboratories. A total of 22 mice were used for the study. • 1. MPO/Matrigel imaging experiments: Matrigel™ (Beckton-Dickinson), a […] basement membrane matrix gel was used to immobilize human MPO and glucose oxidase (to supply H2O2 required for detecting MPO oxidative activity, Calbiochem). This was chosen to reflect deposits of human MPO in inflamed tissue in a mouse model. 400 μL of a mixture of Matrigel™ and MEM (Cambrex) was injected slowly into the thighs of each mouse one hour prior to imaging. The right thigh mixture also contained 15 U of MPO and 4 U of glucose oxidase (Calbiochem), while the left thigh mixture contained no enzyme and thus serves as an internal control. […]

MPO = target: T2, MPO (Homo sapiens, UniProt P05164); assay: MR imaging at 1.5 T of substrate solutions with MPO; assay type: biochemical
T2 construct: purchased BioDesign Inc
Protocol: (§1) Standard 96-well plates were prepared and imaged on a 1.5 T whole body clinical General Electric Signa MRI scanner utilizing a standard 3 inch surface coil. Inversion recovery sequences were used to measure T1 relaxation and spin echo sequences were utilized to measure T2 relaxation. T2 weighted images were obtained with TR=5000 ms and TE=100 ms with a fast spin echo sequence. T1 weighted images were obtained with spin echo sequences with the following parameters: TR=100, 200, 350, or 500, TE=11. For the Matrigel™ experiments, a relatively T2 weighted image was obtained at TR=300 ms and TE=200 ms. Single-exponential models were used to obtain T1 and T2. The relaxivities were computed by normalizing relaxation rates to the concentration of gadolinium in each sample, obtained by inductive coupled plasma (ICP) analysis performed by Galbraith Laboratories.
Because of the relatively higher relaxivity and relatively faster kinetics with MPO, 5-HT-DOTA was chosen for further evaluation by imaging on a clinical 1.5 T MRI scanner. FIGS. 6A-6F and FIGS. 7A-7F illustrate the relative signal changes for typical T1- and T2-weighted images in aqueous solutions with MPO. […] An approximately 40% signal difference was identified at 1300-2000 U (FIGS. 6C-6D), in keeping with the amount of relaxivity shortening found in the relaxation experiments ˜70%).

human neutrophil MPO = target: T3, human neutrophil MPO (Homo sapiens, UniProt P05164); assay: MPO-mediated polymerization of DOTA(Gd) substrates: T1/T2 relaxivity change; assay type: biochemical; settings: for maximum ratio of relaxivity increase between MPO-converted product and substrate: longitudinal and transverse, 1300-1400 U of enzyme activity
T3 construct: purchased BioDesign Inc
Protocol: Reactions with HRP and MPO were carried out at room temperature in the presence of 0.5-1 mM substrate dissolved in 0.5 ml PBS containing H2O2 (2 mM). Reaction was initiated by adding an aliquot containing the enzyme (either HRP or MPO) and vortexing. After at least a 30 min incubation period T1 was measured using inversion-recovery pulse sequence Bruker Minispec (Buker Analytics, North Bellirica Mass.) at 0.47 T (20 MHz). Size-exclusion HPLC of reaction products was performed on TSK G3000SWXL macroporous column (Supelco) eluted with 0.1 M triethylammonium acetate, pH 7.0 at 1 ml/min.
as §1
To determine the effect of myeloperoxidase on the substrates, we performed T1 and T2 relaxivity measurements in aqueous solutions, with and without MPO and hydrogen peroxide, at 0.47 T and 1.5 T (the results are summarized in FIGS. 3A and 3B for tyramide-DOTA(Gd) and FIGS. 4A and 4B for 5-HT-DOTA(Gd)). For reference, the two substrates were also reacted with HRP (solid symbols in FIGS. 3A and 3B and FIGS. 4A and 4B).

T3 sequence (P05164 279-745 limits assumed): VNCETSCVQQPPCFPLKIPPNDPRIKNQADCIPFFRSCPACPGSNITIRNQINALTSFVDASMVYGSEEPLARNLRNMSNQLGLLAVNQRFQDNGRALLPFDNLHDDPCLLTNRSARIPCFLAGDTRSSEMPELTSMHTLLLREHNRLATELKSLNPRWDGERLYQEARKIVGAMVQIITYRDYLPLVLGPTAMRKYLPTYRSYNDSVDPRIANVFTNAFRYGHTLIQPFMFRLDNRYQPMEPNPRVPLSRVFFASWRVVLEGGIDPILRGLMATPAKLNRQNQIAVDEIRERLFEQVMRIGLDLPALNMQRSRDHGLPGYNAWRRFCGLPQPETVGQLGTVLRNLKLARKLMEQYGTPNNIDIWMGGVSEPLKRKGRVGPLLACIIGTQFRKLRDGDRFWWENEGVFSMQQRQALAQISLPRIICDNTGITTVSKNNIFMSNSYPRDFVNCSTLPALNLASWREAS
T3 sequence (P05164 165-273 limits assumed): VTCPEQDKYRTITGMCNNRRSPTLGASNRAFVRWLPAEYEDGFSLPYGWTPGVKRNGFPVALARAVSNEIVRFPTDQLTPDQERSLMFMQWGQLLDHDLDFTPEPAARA
T2 sequence (P05164 279-745 limits assumed): as the sequence (P05164 279-745 limits assumed) above
T2 sequence (P05164 165-273 limits assumed): as the sequence (P05164 165-273 limits assumed) above

CC(C(=O)NCC(=O)NCCc1c[nH]c2ccc(O)cc12)N1CCN(CC(=O)[O-])CCN(CC(=O)[O-])CCN(CC(=O)[O-])CC1.[Gd+3] (stereo not drawn) [5-HT-DOTA(Gd), Glycylmethyl DOTA(Gd) 5-Hydroxytryptamide]
enhancement at 50 minutes after injection (endogenous mouse MPO): still significant enhancement
MPO activity giving visible imaging signal changes (MPO): 250 U and 250-650 U
signal difference between MPO-converted product and substrate solution (MPO; 1300-2000 U): approximately 40%
maximum ratio of relaxivity increase between MPO-converted product and substrate (human neutrophil MPO; 0.47 T): 1.9-2 times
maximum ratio of relaxivity increase between MPO-converted product and substrate (human neutrophil MPO; 1.5 T): 1.6-1.7 times
T1 shortening relative to that by HRP (human neutrophil MPO; 10 μL of MPO (1.6 mg/ml) vs 1 μL HRP (4 mg/ml)): 100%
T1 shortening relative to HRP-mediated T1 shortening (human neutrophil MPO; 250-650 U MPO): Approximately 70%
relaxivity shortening found in the relaxation experiments (human neutrophil MPO; 1300-2000 U): ~70%
increase in relaxivity of polymer product (human neutrophil MPO; equivalent amount of MPO, clinical imaging strength): 1.7 times
